Test results taken from patent US20170050988A1, “DOTAM DERIVATIVES FOR THERAPEUTIC USE” (priority 2013, published 2017).
Starred links: 1 amine or outer side, 2 acyl side, 3 side chain; linkers in the order of their positions; H or OH if unused. Positions of bridges follow the written chain, without caps; N, C: chain ends. Non-standard residues stand in square brackets, D forms with d. Residues, ends and D or L forms follow the SMILES beside them. Chains are numbered I, II in the order given. *: point of attachment. X3 = NCCOCCOCCNC(=O)CN1CCN(CC(=O)NCCOCCOCCN[*:1])CCN(CC(=O)NCCOCCOCCN)CCN(CC(=O)NCCOCCOCCN[*:2])CC1; X2 = CC(C)C[C@H](N[*:1])[C@H](O)CC(=O)[*:2]; Sta = CC(C)C[C@H](N)[C@@H](O)CC(=O)O; Isovaleryl = CC(C)CC(=O)*

Key:
[1] = target: T1, Cathepsin D (Homo sapiens, UniProt P07339); test: Cathepsin D enzyme assay; type: biochemical
T1 construct: purchased Biomol Se-199
Protocol: For quantification of Cathepsin D inhibitory activity, an enzymatic assay was used that measures the turnover of a quenched, fluorescenctly-labeled, Cathepsin D-cleavable, peptide substrate over time.
Specifically, 13 ng of purified Cathepsin D enzyme (Biomol; Cat.No. Se-199) was administered per well of a 96 well plate, substance/inhibitor of interest was added and the mixture incubated for 10 min. at 37° C. Then, the enzymatic reaction was started by addition of fluorescenctly-labeled, Cathepsin D-Substrat ([…] (7-Methoxycoumarin-4-yl)-acetyl-Pro-Leu-Gly-Leu-(3 [2,4-dinitrophenyl]-L-2,3-diaminopropionyl)-Ala-Arg-NH2 (Bachem M-1895). The reaction volume amounts to 30 μl and contains 50 mM acetic acid, 200 mM NaCl and 0.003% Brij 35 and was adjusted to pH 4.5 with acetic acid. By cleavage of the peptide chain, the […] is released and the emission of fluorescence dye is measured using excitation/emission wavelengths ([…]) on a Tecan Spectrafluor Plus—instrument at 37° C. for 10 min. For the determination of the compound dose response, a 10 mM DMSO stock solution was diluted and tested in a ten-point, three-fold dilution series run in duplicate beginning at 30 μM final concentration. Data were analyzed using a four-parameter curve fit with a fixed minimum and maximum experimentally defined as the average positive and negative controls on each plate.

[2] = Solubility in phosphate buffer; type: physicochemical; settings: phosphate buffer at pH 7.4; read-out: solubility
[3] = test system: pig articular cartilage explants; test: Ex vivo GAG release model with pig articular cartilage explants; type: cell-based; settings: explants pre-incubated with 1 μM inhibitor 24 h, then washed
[4] = Solubility in DMSO after lyophilization; type: physicochemical
Protocol: 1 equiv. […] DIPEA (10 λl, 60 μmol). The reaction mixture was stirred under argon at room temperature for 2 days. The solvent was directly purified by preparative HPLC to give HHY-328 (4.3 mg, Yield: 22.6%) as a white powder.

[5] = T1 of contrast agent in DPBS; type: physicochemical; settings: 0.2 mM in DPBS
Protocol: To explore the potential of cartilage targeting agents as practical MRI contrast agents for accurate diagnostic imaging, we investigated HHY-316Gd in vivo with healthy rats. As an essentially non-binding control, contrast agent HHY-341Gd (T1=1368±10 ms, 0.2 mM in DPBS) with the non-binding scrambled peptide sequence YRLGRW and acetylated amine groups was used as reference. MRI was performed using a 4.7 T Bruker BioSpec whole body MR imager. Male skeletally mature Lewis rats were anesthetized (by Isoflurane), fixed in supine position and both knees were placed within a transmitting/receiving wrist coil. […] In the HHY-316Gd applied knees there is a significant MRI signal enhancement of the articular and growth plate cartilages which consist principally of collagen II and proteoglycan. The signal intensity (SI) in the articular cartilage and growth plate increased 86% and 77% after 24 hours following administration of HHY-316Gd and increased 84% and 85% at 72 hours after intra-articular injection, respectively (FIGS. 6-11). […]
To assist histological examination of joint slices after termination of the study, we decided to co-administer a second probe, HHY-338 (T1=11493±27 ms, 0.2 mM in DPBS), containing a Cy5.5 moiety. […] Chondrophyte/osteophyte regions were examined in sections stained with safranin O/fast green and recorded using a Zeiss Miraxscan microscope (FIG. 12b).

T1 sequence (P07339 65-412): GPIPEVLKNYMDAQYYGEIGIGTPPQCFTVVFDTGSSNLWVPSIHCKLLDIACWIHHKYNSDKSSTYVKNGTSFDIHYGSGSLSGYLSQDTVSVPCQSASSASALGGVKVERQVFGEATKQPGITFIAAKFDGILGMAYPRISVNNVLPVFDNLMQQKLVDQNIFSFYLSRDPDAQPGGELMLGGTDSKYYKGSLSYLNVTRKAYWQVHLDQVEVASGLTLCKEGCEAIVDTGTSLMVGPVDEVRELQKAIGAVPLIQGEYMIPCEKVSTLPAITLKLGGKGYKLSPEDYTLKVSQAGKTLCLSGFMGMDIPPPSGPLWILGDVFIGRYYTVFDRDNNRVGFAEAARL

In the case of CC(=O)N[C@@H](Cc1c[nH]c2ccccc12)C(=O)N[C@@H](Cc1ccc(O)cc1)C(=O)N[C@@H](CCCNC(=N)N)C(=O)NCC(=O)N[C@@H](CCCNC(=N)N)C(=O)N[C@@H](CC(C)C)C(=O)NCCOCCOCCNC(=O)CN1CCN(CC(=O)NCCOCCOCCN)CCN(CC(=O)NCCOCCOCCNC(=O)C[C@@H](O)[C@H](CC(C)C)NC(=O)[C@H](C)NC(=O)C[C@H](O)[C@H](CC(C)C)NC(=O)[C@@H](NC(=O)[C@@H](NC(=O)CC(C)C)C(C)C)C(C)C)CCN(CC(=O)NCCOCCOCCN)CC1 [HHY-327, AcWYRGRL-DOTA-Pepstatin A] (I: Ac-WYRGRL / II: Isovaleryl-VV[Sta]A[X2]; linker I:C-II:C via X3), the IC50 [1] is reported as 2.1 nM, the solubility [2] is reported as greater than 5920 µg/mL and the “inhibition of GAG release” value ([3]; 24 hours after stimulation at pH 5.0) is reported as 41%. For the same compound, the “inhibition of GAG release” value ([3]; 48 hours after stimulation at pH 5.0) was “no differentiating effect” and the “effect on acid-stimulated GAG release / degradation (FIG. 3)” value ([3]; pH 5.0) was “very impressive effect”.
With AcWYRGRL-DOTA-(Pepstatin A)3 [HHY-328] the “solubility in DMSO” value [4] was “only slightly soluble”.
In the case of AcWYRGRL-DOTA-Cy5.5-[Gd3+] [HHY-338], the T1 [5] is reported as 11493 ± 27 ms.
In the case of AcYRLGRW-DOTA-[Gd3^+] [HHY-341Gd], the T1 [5] is reported as 1368 ± 10 ms.
